Patent publication US12180187B2, “1-phenyl-5-azinylpyrazolyl-3-oxyalkyl acids and their use for controlling unwanted plant growth” (BAYER AKTIENGESELLSCHAFT, priority 2019, dated 2024)

Tests used:
DIGSA [1] = experiment: Post-emergence action against DIGSA, 1.28 kg/ha; assay type: in vivo, Digitaria sanguinalis; details: dosage 1280 g/ha, visual rating about 3 weeks after treatment vs untreated controls
Outline: (§1)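 Spray at one-leaf stage with WP/EC + 0.5% additive, 600 L water/ha. Greenhouse, optimum conditions, ~3 wk. Visual % control vs untreated; 0 = no effect, 100 = dead.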

VERPE [2] = experiment: Pre-emergence action against VERPE, 1280 g/ha; assay type: in vivo, Veronica persica; details: scored visually after about 3 weeks vs untreated controls (100% = plants have died)
Outline: (§2)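 Each pot was doubly sown in sandy loam and covered, then its soil surface was treated with compound suspension or emulsion containing 0.5% additive at 600 L/ha water. Plants grew in a greenhouse; effect was rated visually as percentages versus controls after about 3 weeks.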

AMARE [3] = experiment: Post-emergence action against AMARE, 1.28 kg/ha; assay type: in vivo, Amaranthus retroflexus; details: dosage 1280 g/ha, visual rating about 3 weeks after treatment vs untreated controls (100% = plants died)
Outline: as §1

LOLRI [4] = experiment: Pre-emergence action against LOLRI, 1280 g/ha; assay type: in vivo, Lolium rigidum; details: visual scoring after about 3 weeks vs untreated controls, 100% = plants have died, 0% = like control plants
Outline: as §2

MATIN [5] = experiment: Pre-emergence action against MATIN, 1280 g/ha; assay type: in vivo, Tripleurospermum inodorum (Matricaria inodora); details: scored visually after about 3 weeks vs untreated controls (100% = plants have died)
Outline: as §2

VERPE [6] = experiment: Post-emergence action against VERPE, 1.28 kg/ha; assay type: in vivo, Veronica persica; details: dosage 1280 g/ha, visual rating about 3 weeks after treatment vs untreated controls (100% = plants died)
Outline: as §1

POAAN [7] = experiment: Post-emergence action against POAAN, 1.28 kg/ha; assay type: in vivo, Poa annua; details: dosage 1280 g/ha, visual rating about 3 weeks after treatment vs untreated controls
Outline: as §1

KCHSC = experiment: Post-emergence action against KCHSC, 1.28 kg/ha; assay type: in vivo, Bassia scoparia; details: dosage 1280 g/ha, visual rating about 3 weeks after treatment vs untreated controls (100% = plants died)
Method: (§3) • a) Seeds of mono- and dicotyledonous weed plants are placed in plastic pots in sandy loam soil (twin sowing with one species each of mono- or dicotyledonous weed plants per pot), covered with soil and cultivated in a greenhouse under controlled growth conditions. 2 to 3 weeks after sowing, the test plants are treated at the one-leaf stage. The compounds of the invention, formulated in the form of wettable powders (WP) or as emulsion concentrates (EC), are applied to the green parts of the plants as aqueous suspension or emulsion with addition of 0.5% additive at a water application rate equivalent to 600 litres per hectare. After the test plants have been kept in the greenhouse under optimum growth conditions for about 3 weeks, the activity of the preparations is rated visually in comparison to untreated controls. For example, 100% activity=the plants have died, 0% activity=like control plants. As shown by the results, compounds of the general formula (I) of the invention, in post-emergence treatment, have very good herbicidal efficacy (90% to 100% herbicidal action) against harmful plants such as Abutilon theophrasti, Digitaria sanguinalis, Echinochloa crus-galli, Matricaria inodora, Poa annua, at an application rate of 1.28 kg of active substance per hectare.

ALOMY [8] = experiment: Pre-emergence action against ALOMY, 1280 g/ha; assay type: in vivo, Alopecurus myosuroides; details: visual scoring after about 3 weeks vs untreated controls, 100% = plants have died, 0% = like control plants
Outline: as §2

SETVI [9] = experiment: Pre-emergence action against SETVI, 1280 g/ha; assay type: in vivo, Setaria viridis; details: visual scoring after about 3 weeks vs untreated controls, 100% = plants have died, 0% = like control plants
Outline: as §2

ALOMY [10] = experiment: Post-emergence action against ALOMY, 1.28 kg/ha; assay type: in vivo, Alopecurus myosuroides; details: dosage 1280 g/ha, visual rating about 3 weeks after treatment vs untreated controls
Outline: as §1

MATIN [11] = experiment: Post-emergence action against MATIN, 1.28 kg/ha; assay type: in vivo, Tripleurospermum inodorum (Matricaria inodora); details: dosage 1280 g/ha, visual rating about 3 weeks after treatment vs untreated controls (100% = plants died)
Outline: as §1

STEME [12] = experiment: Pre-emergence action against STEME, 1280 g/ha; assay type: in vivo, Stellaria media; details: scored visually after about 3 weeks vs untreated controls (100% = plants have died)
Outline: as §2

ECHCG [13] = experiment: Post-emergence action against ECHCG, 1.28 kg/ha; assay type: in vivo, Echinochloa crus-galli; details: dosage 1280 g/ha, visual rating about 3 weeks after treatment vs untreated controls
Outline: as §1

ECHCG [14] = experiment: Pre-emergence action against ECHCG, 1280 g/ha; assay type: in vivo, Echinochloa crus-galli; details: visual scoring after about 3 weeks vs untreated controls, 100% = plants have died, 0% = like control plants
Outline: as §2

ABUTH = experiment: Post-emergence action against ABUTH, 1.28 kg/ha; assay type: in vivo, Abutilon theophrasti; details: dosage 1280 g/ha, visual rating about 3 weeks after treatment vs untreated controls (100% = plants died)
Outline: as §1

SETVI [15] = experiment: Post-emergence action against SETVI, 1.28 kg/ha; assay type: in vivo, Setaria viridis; details: dosage 1280 g/ha, visual rating about 3 weeks after treatment vs untreated controls
Outline: as §1

POAAN [16] = experiment: Pre-emergence action against POAAN, 1280 g/ha; assay type: in vivo, Poa annua; details: visual scoring after about 3 weeks vs untreated controls, 100% = plants have died, 0% = like control plants
Outline: as §2

AMARE [17] = experiment: Pre-emergence action against AMARE, 1280 g/ha; assay type: in vivo, Amaranthus retroflexus; details: scored visually after about 3 weeks vs untreated controls (100% = plants have died)
Outline: as §2

DIGSA [18] = experiment: Pre-emergence action against DIGSA, 1280 g/ha; assay type: in vivo, Digitaria sanguinalis; details: visual scoring after about 3 weeks vs untreated controls, 100% = plants have died, 0% = like control plants
Outline: as §2

LOLRI [19] = experiment: Post-emergence action against LOLRI, 1.28 kg/ha; assay type: in vivo, Lolium rigidum; details: dosage 1280 g/ha, visual rating about 3 weeks after treatment vs untreated controls
Method: as §3

STEME [20] = experiment: Post-emergence action against STEME, 1.28 kg/ha; assay type: in vivo, Stellaria media; details: dosage 1280 g/ha, visual rating about 3 weeks after treatment vs untreated controls (100% = plants died)
Outline: as §1

Row | SMILES | Post-emergence action against DIGSA (DIGSA [1]) [%] | Pre-emergence action against VERPE (VERPE [2]) [%] | Post-emergence action against AMARE (AMARE [3]) [%] | Pre-emergence action against LOLRI (LOLRI [4]) [%] | Pre-emergence action against MATIN (MATIN [5]) [%] | Post-emergence action against VERPE (VERPE [6]) [%] | Post-emergence action against POAAN (POAAN [7]) [%] | Post-emergence action against KCHSC (KCHSC) [%] | Pre-emergence action against ALOMY (ALOMY [8]) [%] | Pre-emergence action against SETVI (SETVI [9]) [%] | Post-emergence action against ALOMY (ALOMY [10]) [%] | Post-emergence action against MATIN (MATIN [11]) [%] | Pre-emergence action against STEME (STEME [12]) [%] | Post-emergence action against ECHCG (ECHCG [13]) [%] | Pre-emergence action against ECHCG (ECHCG [14]) [%] | Post-emergence action against ABUTH (ABUTH) [%] | Post-emergence action against SETVI (SETVI [15]) [%] | Pre-emergence action against POAAN (POAAN [16]) [%] | Pre-emergence action against AMARE (AMARE [17]) [%] | Pre-emergence action against DIGSA (DIGSA [18]) [%] | other results
1 | CCOC(=O)COc1nn(-c2ccccc2F)c(-c2ccc(F)cn2)c1I [II-012] | 90 | 90 | 100 | 100 | 90 | 100 | 100 | 100 | 90 | 100 | 100 | 90 | 100 | 100 | 90 | 90 | 90 | 100 | 90 | 100 | –
2 | CCOC(=O)COc1nn(-c2ccccc2F)c(-c2ccnnc2)c1Br [IV-001, Ethyl {[4-bromo-1-(2-fluorophenyl)-5-(pyridazin-4-yl)-1H-pyrazol-3-yl]oxy}acetate] | – | – | – | – | – | – | – | 90 | – | – | 100 | – | – | – | – | – | 100 | – | – | – | pest or weed control at 1280 g/ha (LOLRI [4]; Lolium rigidum, 504 h): 100%; pest or weed control at 1280 g/ha (MATIN [5]; Tripleurospermum inodorum, 504 h): 90%; pest or weed control at 1280 g/ha (VERPE [6]; Veronica persica, 504 h): 90%; pest or weed control at 1280 g/ha (POAAN [7]; Poa annua, 504 h): 100%; pest or weed control at 1280 g/ha (SETVI [9]; Setaria viridis, 504 h): 100%; pest or weed control at 1280 g/ha (STEME [12]; Stellaria media, 504 h): 90%; pest or weed control at 1280 g/ha (ECHCG [13]; Echinochloa crus-galli, 504 h): 90%; pest or weed control at 1280 g/ha (ECHCG [14]; Echinochloa crus-galli, 504 h): 90%; pest or weed control at 1280 g/ha (POAAN [16]; Poa annua, 504 h): 100%; pest or weed control at 1280 g/ha (AMARE [17]; Amaranthus retroflexus, 504 h): 90%
3 | CONC(=O)COc1nn(-c2ccccc2F)c(-c2ccc(F)nc2)c1Br [VII-068] | 100 | 100 | 100 | 100 | 100 | 100 | 100 | 90 | 100 | 100 | 100 | 90 | 100 | 100 | 100 | 100 | 90 | 100 | 100 | 100 | Post-emergence action against LOLRI (LOLRI [19]): 100%
4 | COC(=O)CNC(=O)COc1nn(-c2ccccc2F)c(-c2ccnc(F)c2)c1Br [VIII-009] | 100 | 100 | 90 | 90 | 100 | 100 | 100 | 90 | – | 100 | 100 | 90 | 100 | 100 | 100 | – | 90 | 100 | 100 | 100 | –
5 | COC(=O)COc1nn(-c2cc(F)ccc2F)c(-c2ccnc(F)c2)c1Br [VIII-010] | 100 | 100 | 100 | 100 | 100 | 90 | 100 | 90 | 100 | 100 | 100 | 100 | 100 | 100 | 100 | – | 100 | 100 | 100 | 100 | Post-emergence action against STEME (STEME [20]): 100%; Post-emergence action against LOLRI (LOLRI [19]): 100%
